Measurements reported in patent publication US9453842B2, “Inhibition of peroxidase enzymatic activity” (Roche Molecular Systems, Inc., priority 2006, dated 2016).

Assays:
HRP [1] = biological target: T1, HRP (Armoracia rusticana, UniProt P00433); assay: Inhibition of 1 mU of HRP activity using heavy metal salts and other compounds as stop reagents (ABTS, 96-well plate); conditions: 1 mU HRP; for Absorbance at 405 nm: higher concentration of Table 1
T1 sequence (P00433 31-338): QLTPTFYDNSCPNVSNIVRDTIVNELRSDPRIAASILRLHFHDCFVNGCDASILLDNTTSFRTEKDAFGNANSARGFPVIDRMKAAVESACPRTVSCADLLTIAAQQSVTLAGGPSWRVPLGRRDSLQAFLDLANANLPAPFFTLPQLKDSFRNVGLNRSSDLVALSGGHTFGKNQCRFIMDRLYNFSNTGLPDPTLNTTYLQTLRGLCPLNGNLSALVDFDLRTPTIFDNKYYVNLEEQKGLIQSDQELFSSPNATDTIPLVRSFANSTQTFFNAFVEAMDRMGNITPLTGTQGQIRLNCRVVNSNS

[2] = system: horseradish peroxidase (HRP); assay: Inhibition of ABTS turnover catalyzed by a low amount of HRP (sandwich ELISA, non-induced Jurkat cell lysate); format: biochemical, horseradish (Armoracia rusticana); conditions: SDS 1% or 5%, high concentrations of oxalic acid or sulfuric acid
Method: FIG. 1, A and B: inhibition of ABTS turnover catalyzed by a low amount of HRP (detection of a low amount of mono- and oligosomes in Jurkat cells; further details are given in Example 1). The ordinate indicates absorbance. Groups of bars represent comparative measurements at time points after the addition of stop reagents as indicated: (‡)—control, ABTS solution incubated without HRP, no stop reagent added; (a) to (k)—ABTS solution incubated with HRP and subsequently mixed with stop reagent as indicated: […] Jurkat cells were cultured and subsequently divided into two culture dishes. In one dish the cells were treated with 1 μg/ml CAM (Camptothecin) to induce apoptosis, thereby leading to the formation of mono and oligonucleosomes, the target antigen. After an incubation period of 4 hours the cells of both dishes were harvested separately by centrifugation, lysed by the detergent contained in the Cell Death Detection ELISA Plus (Roche Diagnostics GmbH, Mannheim, Germany; Catalog No. 1920685), and frozen. The mono and oligonucleosomes consisting of DNA and histones H2A, H2B, H3 and H4 were detected in thawed cell homogenate by way of a sandwich ELISA. Antigen was captured with a first monoclonal antibody against histone from the Cell Death Detection ELISA Plus kit. The antibody was coated onto the walls of a 96-well microplate. The detection antibody was a DNA-specific polyclonal antibody conjugated with horseradish peroxidase. Non-induced and CAM-induced Jurkat cells yielded low and high amounts of target antigen, thereby leading to low and high absolute amounts of horseradish peroxidase enzymatic activity in the respective wells. Into each well of the 96-well microplate an aliquot of 100 μl of ABTS Solution (Roche Diagnostics GmbH, Mannheim, Germany; Roche Applied Science, product no. 11684302001) was added. After an incubation for 8 minutes at room temperature, 100 μl of either distilled water or a stop reagent as indicated in the legend to FIG. 1 was added.

HRP [3] = assay: Inhibition of 1 mU of HRP activity using acidified SDS solution as stop reagent (ABTS); format: biochemical, horseradish (Armoracia rusticana); conditions: acidification of the reaction mixture to pH about 2.5 to 4.2; SDS final concentration between 0.25% and 2.5% weight by volume
Method: A solution of 5% [w/v] sodium dodecyl sulfate acidified with 0.25 M hydrochloric acid was used as a stop reagent to inhibit 1 mU peroxidase enzymatic activity of HRP. […] 100 μl of stop reagent were added.
Another experiment was performed in which two different SDS concentrations, 5% and 0.5% [w/v] in an acidified solution were compared.

[4] = system: horseradish peroxidase (HRP); assay: Inhibition of ABTS turnover catalyzed by a high amount of HRP (sandwich ELISA, CAM-induced Jurkat cell lysate); format: biochemical, horseradish (Armoracia rusticana)
Method: FIG. 2, A and B: inhibition of ABTS turnover catalyzed by a high amount of HRP detection of a high amount of mono- and oligosomes in Jurkat cells; further details are given in Example 1. All other designations are the same as in FIG. 1. Jurkat cells were cultured and subsequently divided into two culture dishes. In one dish the cells were treated with 1 μg/ml CAM (Camptothecin) to induce apoptosis, thereby leading to the formation of mono and oligonucleosomes, the target antigen. After an incubation period of 4 hours the cells of both dishes were harvested separately by centrifugation, lysed by the detergent contained in the Cell Death Detection ELISA Plus (Roche Diagnostics GmbH, Mannheim, Germany; Catalog No. 1920685), and frozen. The mono and oligonucleosomes consisting of DNA and histones H2A, H2B, H3 and H4 were detected in thawed cell homogenate by way of a sandwich ELISA. Antigen was captured with a first monoclonal antibody against histone from the Cell Death Detection ELISA Plus kit. The antibody was coated onto the walls of a 96-well microplate. The detection antibody was a DNA-specific polyclonal antibody conjugated with horseradish peroxidase. Non-induced and CAM-induced Jurkat cells yielded low and high amounts of target antigen, thereby leading to low and high absolute amounts of horseradish peroxidase enzymatic activity in the respective wells. […]

[5] = Table 2b, 6 min, stop reagent added after 8 min incubation
[6] = Table 2b, 9 min, stop reagent added after 8 min
[7] = Table 2b, 15 min, stop reagent added after 8 min
[8] = Table 2b, 30 min, stop reagent added after 8 min
[9] = Table 2b, 45 min, stop reagent added after 8 min
[10] = Table 2b, 60 min, stop reagent added after 8 min
[11] = Table 2b, 180 min, stop reagent added after 8 min

Row | Compound | Absorbance at 405 nm (HRP [1]; [5]) | Absorbance at 405 nm (HRP [1]; [6]) | Absorbance at 405 nm (HRP [1]; [7]) | Absorbance at 405 nm (HRP [1]; [8]) | Absorbance at 405 nm (HRP [1]; [9]) | Absorbance at 405 nm (HRP [1]; [10]) | Absorbance at 405 nm (HRP [1]; [11]) | Decoloration of the dye (HRP [1]; ABTS) | Inhibition of the reaction (FIG. 1) [2] | further results
1 | [Cl][Ni][Cl] [(ix), Nickel (II) chloride] | 1.175 | 2.241 | 2.999 | 3.719 | 3.999 | 3.715 | 3.999 | – | – | –
2 | [Na+].[Na+].[Na+].[O]=[V]([O-])([O-])[O-] [(vii), Sodium orthovanadate] | 1.173 | 0.115 | 0.096 | 0.089 | 0.088 | 0.092 | 0.100 | decoloration of the dye | – | –
3 | [F-].[Na+] [(viii), NaF] | 1.176 | 1.343 | 1.424 | 1.572 | 1.721 | 1.818 | 2.107 | – | – | Inhibition of HRP (in words) (HRP [1]; ABTS): affected inhibition, however only partially
4 | NC(=O)C(=O)[O-].[Na+] [(xi), Sodium Oxamate] | 1.182 | 1.776 | 2.525 | 3.091 | 3.097 | 3.095 | 2.865 | – | – | –
5 | N#C[S-].[K+] [(xii), KSCN] | 1.179 | 1.207 | 1.290 | 1.201 | 1.086 | 0.989 | 0.849 | decoloration of the dye | – | –
6 | [Na+].[OH-] [(xiii), NaOH] | – | – | – | – | – | – | – | decoloration of the dye | – | Absorbance at 405 nm (HRP [1]; Table 2a, 6 min, stop reagent added after 8 min incubation): 1.036; Absorbance at 405 nm (HRP [1]; Table 2a, 9 min, stop reagent added after 8 min): 0.878; Absorbance at 405 nm (HRP [1]; Table 2a, 15 min, stop reagent added after 8 min): 0.027; Absorbance at 405 nm (HRP [1]; Table 2a, 30 min, stop reagent added after 8 min): 0.027; Absorbance at 405 nm (HRP [1]; Table 2a, 45 min, stop reagent added after 8 min): 0.027; Absorbance at 405 nm (HRP [1]; Table 2a, 60 min, stop reagent added after 8 min): 0.027; Absorbance at 405 nm (HRP [1]; Table 2a, 180 min, stop reagent added after 8 min): 0.026
7 | CCCCCCCCCCCCOS(=O)(=O)[O-].[Na+] [SDS, sodium dodecyl sulfate] | – | – | – | – | – | – | – | – | complete inhibition | Inhibiting peroxidase enzymatic activity (in words) (HRP [3]): very effective; Inhibition of the high amount of HRP activity (FIG. 2) [4]: not able to inhibit completely
8 | O=C(O)C(=O)O [oxalic acid] | – | – | – | – | – | – | – | – | complete inhibition | Inhibition of the high amount of HRP activity (FIG. 2) [4]: not able to inhibit completely
9 | O=S(=O)(O)O [sulfuric acid] | – | – | – | – | – | – | – | – | complete inhibition | –
